Experimental data: patent publication US12570648B2, “6,7-dihydro-5H-pyrido[2,3-c]pyridazine derivatives and related compounds as Bcl-xL protein inhibitors and pro-apoptotic agents for treating cancer” (LES LABORATOIRES SERVIER, priority 2019, dated 2026)

Legend:
MOLT-4 cells = assay: MOLT-4 cell viability using MTT assay; format: cell-based; settings: 48 h exposure
Experimental: MTT colorimetric assay is based on the mitochondrial reduction of tetrazolium salt by living cells.
Cells were cultured at 37° C. in a humidified atmosphere containing 5% CO2. […] At the end of incubation time, 15 μL of MTT solution (5 mg/ml) were added per well and the cells were incubated for another 4 h. […] IC50s were calculated using standard four-parametric curve fitting.

[1] = target: His-His-(EK)-hsBCLXL(2-197)[N197C] (Homo sapiens (Human), UniProt Q07817, N197C); assay: Fluorescence quenching assay; format: binding; settings: 1 nM Cy5-labelled protein, 400 nM PUMA peptide, 2 hours at 23° C.; KI determined from IC50
Source text: Fluorescence quenching assay measures the change in fluorescence intensity of C-terminally Cy5-labelled BCL-xL protein, His-His-(EK)-hsBCLXL(2-197)[N197C] (UniProtKB®
which is linked in C-terminal region to the amino acid X which corresponds to a cysteine labelled on the sulfur with Sulfo-Cyanine5 from Lumiprobe GmbH catalogue number 13380, upon binding of a C-terminally labelled peptide derived from PUMA (UniProtKB® primary accession number Q9BXH1) having an aminoacid sequence (SEQ ID:04): [[…]] which is linked in C-terminal region to the amino acid X′ where X′ is cysteine labelled on the sulfur with TQ5WS from AAT Bioquest catalogue number 2079.
The addition of a compound which binds competitively to the same site as the peptide will result in an increase in the fluorescence intensity of the protein due to displacement of the fluorescence quencher.
An 11-point serial dilution of each compound was prepared in DMSO, the final buffer conditions were 10 mM 4-(2-hydroxyethyl)-1-piperazineethanesulfonic acid [HEPES], 150 mM NaCl, 0.05% Tween 20, pH 7.4 and 5% DMSO. The final protein concentration in the assay was 1 nM with the peptide present at 400 nM. The experiments were incubated for 2 hours at 23° C. before fluorescence intensity was measured on a Biotek SynergyNeo plate reader (Excitation 620 nm, emission 680 nm). […] The K1 values were determined from the IC50 values according to Cer et al, Nucleic Acids Res, 2009, Jul. 1; 37 (WebServer issue): W441-W445.

Sequence of His-His-(EK)-hsBCLXL(2-197)[N197C] (Q07817 2-197 N197C): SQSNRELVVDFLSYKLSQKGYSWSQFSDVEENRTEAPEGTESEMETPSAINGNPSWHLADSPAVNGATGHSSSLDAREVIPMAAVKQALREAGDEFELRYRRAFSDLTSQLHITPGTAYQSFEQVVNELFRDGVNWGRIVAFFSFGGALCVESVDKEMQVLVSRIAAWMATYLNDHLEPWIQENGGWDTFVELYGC

SMILES | IC50 (MOLT-4 cells; Homo sapiens, MOLT-4, 48 h) [nM] | Ki [1] [nM] | IC50 (MOLT-4 cells) [nM]
Cc1c(Nc2nc3ccccc3s2)nnc2c1CCCN2c1ccc(-c2cnn(CC34CC5(C)CC(C)(C3)CC(OCCNC(CO)CO)(C5)C4)c2C)c(C(=O)O)n1 [Example 135, 6-[3-(1,3-benzothiazol-2-ylamino)-4-methyl-6,7-dihydro-5H-pyrido[2,3-c]pyridazin-8-yl]-3-[1-[[3-[2-[[2-hydroxy-1-(hydroxymethyl)ethyl]amino]ethoxy]-5,7-dimethyl-1-adamantyl]methyl]-5-methyl-pyrazol-4-yl]pyridine-2-carboxylic acid] | 3.05 | 0.0018 | –
Cc1c(Nc2nc3ccccc3s2)nnc2c1CCCN2c1nc(C(=O)O)c(CCCOc2ccc(C34CC(CN(C)C)(C3)C4)cc2F)s1 [Example 90, 2-[3-(1,3-Benzothiazol-2-ylamino)-4-methyl-6,7-dihydro-5H-pyrido[2,3-c]pyridazin-8-yl]-5-[3-[4-[1-[(dimethylamino)methyl]-3-bicyclo[1.1.1]pentanyl]-2-fluoro-phenoxy]propyl]thiazole-4-carboxylic acid] | 0.46 | 0.0022 | –
Cc1c(Nc2nc3ccccc3s2)nnc2c1CCCN2c1ccc(-c2cnn(CC34CC5(C)CC(C)(C3)CC(OCCNCc3ccc(O)cc3)(C5)C4)c2C)c(C(=O)O)n1 [Example 149, 6-[3-(1,3-benzothiazol-2-ylamino)-4-methyl-6,7-dihydro-5H-pyrido[2,3-c]pyridazin-8-yl]-3-[1-[[3-[2-[(4-hydroxyphenyl)methylamino]ethoxy]-5,7-dimethyl-1-adamantyl]methyl]-5-methyl-pyrazol-4-yl]pyridine-2-carboxylic acid] | 0.982 | 0.0037 | –
Cc1c(Nc2nc3ccccc3s2)nnc2c1CCCN2c1ccc(-c2cnn(CC34CC5(C)CC(C)(C3)CC(OCCNCCC(O)CO)(C5)C4)c2C)c(C(=O)O)n1 (stereo in doubt) [Example 92, 6-{3-[(1,3-benzothiazol-2-yl)amino]-4-methyl-6,7-dihydropyrido[2,3-c]pyridazin-8(5H)-yl}-3-(1-{[3-(2-{[(3S)-3,4-dihydroxybutyl]amino}ethoxy)-5,7-dimethyladamantan-1-yl]methyl}-5-methyl-1H-pyrazol-4-yl)pyridine-2-carboxylic acid] | – | 0.0017 | 4.58
Cc1c(Nc2nc3ccccc3s2)nnc2c1CCCN2c1ccc(-c2cnn(CC34CC5(C)CC(C)(CC(CCCN6CCN(C)CC6)(C5)C3)C4)c2C)c(C(=O)O)n1 [Example 168, 6-[3-(1,3-benzothiazol-2-ylamino)-4-methyl-6,7-dihydro-5H-pyrido[2,3-c]pyridazin-8-yl]-3-[1-[[3,5-dimethyl-7-[3-(4-methylpiperazin-1-yl)propyl]-1-adamantyl]methyl]-5-methyl-pyrazol-4-yl]pyridine-2-carboxylic acid] | 0.291 | 0.0029 | –
Cc1ccc2sc(Nc3nnc4c(c3C)CCCN4c3ccc(-c4cnn(CC56CC7(C)CC(C)(C5)CC(OCCN5CCCC5)(C7)C6)c4C)c(C(=O)O)n3)nc2c1 [Example 179, 3-[1-[[3,5-dimethyl-7-(2-pyrrolidin-1-ylethoxy)-1-adamantyl]methyl]-5-methyl-pyrazol-4-yl]-6-[4-methyl-3-[(5-methyl-1,3-benzothiazol-2-yl)amino]-6,7-dihydro-5H-pyrido[2,3-c]pyridazin-8-yl]pyridine-2-carboxylic acid] | 0.0916 | 0.0029 | –
Cc1c(Nc2nc3ccccc3s2)nnc2c1CCCN2c1ccc(-c2cnn(CC34CC5(C)CC(C)(C3)CC(OCCNCC(CO)CO)(C5)C4)c2C)c(C(=O)O)n1 [Example 133, 6-[3-(1,3-benzothiazol-2-ylamino)-4-methyl-6,7-dihydro-5H-pyrido[2,3-c]pyridazin-8-yl]-3-[1-[[3-[2-[[3-hydroxy-2-(hydroxymethyl)propyl]amino]ethoxy]-5,7-dimethyl-1-adamantyl]methyl]-5-methyl-pyrazol-4-yl]pyridine-2-carboxylic acid] | 1.68 | 0.0021 | –
Cc1c(Nc2nc3ccccc3s2)nnc2c1CCCN2c1ccc(-c2cnn(CC34CC5(C)CC(C)(CC(CCCN(C)C)(C5)C3)C4)c2C)c(C(=O)O)n1 [Example 167, 6-[3-(1,3-benzothiazol-2-ylamino)-4-methyl-6,7-dihydro-5H-pyrido[2,3-c]pyridazin-8-yl]-3-[1-[[3-[3-(dimethylamino)propyl]-5,7-dimethyl-1-adamantyl]methyl]-5-methyl-pyrazol-4-yl]pyridine-2-carboxylic acid] | 0.0532 | 0.0019 | –
Cc1c(Nc2nc3ccccc3s2)nnc2c1CCCN2c1ccc(-c2cnn(CC34CC5(C)CC(C)(C3)CC(OCCN(CCO)CCO)(C5)C4)c2C)c(C(=O)O)n1 [Example 134, 6-[3-(1,3-benzothiazol-2-ylamino)-4-methyl-6,7-dihydro-5H-pyrido[2,3-c]pyridazin-8-yl]-3-[1-[[3-[2-[bis(2-hydroxyethyl)amino]ethoxy]-5,7-dimethyl-1-adamantyl]methyl]-5-methyl-pyrazol-4-yl]pyridine-2-carboxylic acid] | 1.57 | 0.0028 | –
Cc1c(Nc2nc3ccccc3s2)nnc2c1CCCN2c1ccc(-c2cnn(CC34CC5(C)CC(C)(C3)CC(OCCN3CCNCC3)(C5)C4)c2C)c(C(=O)O)n1 [Example 144, 6-[3-(1,3-benzothiazol-2-ylamino)-4-methyl-6,7-dihydro-5H-pyrido[2,3-c]pyridazin-8-yl]-3-[1-[[3,5-dimethyl-7-(2-piperazin-1-ylethoxy)-1-adamantyl]methyl]-5-methyl-pyrazol-4-yl]pyridine-2-carboxylic acid] | 13.2 | 0.0014 | –
Cc1c(Nc2nc3cccc(F)c3s2)nnc2c1CCCN2c1nc(C(=O)O)c(CCCOc2ccc(C#CCN(C)C)cc2F)s1 [Example 82, 5-[3-[4-[3-(Dimethylamino)prop-1-ynyl]-2-fluoro-phenoxy]propyl]-2-[3-[(7-fluoro-1,3-benzothiazol-2-yl)amino]-4-methyl-6,7-dihydro-5H-pyrido[2,3-c]pyridazin-8-yl]thiazole-4-carboxylic acid] | 1.21 | 0.023 | –

More lines, in order of falling Ki [1], values ahead:

IC50 (MOLT-4 cells; Homo sapiens, MOLT-4, 48 h) [nM] | Ki [1] [nM] | IC50 (MOLT-4 cells) [nM] | SMILES
1.83 | 0.053 | – | Cc1c(Nc2nc3ccccc3s2)nnc2c1CCCN2c1nc(C(=O)O)c(CCCOc2ccc(C#CC3(N(C)C)CCCCC3)cc2F)s1 [Example 84, 2-[3-(1,3-Benzothiazol-2-ylamino)-4-methyl-6,7-dihydro-5H-pyrido[2,3-c]pyridazin-8-yl]-5-[3-[4-[2-[1-(dimethylamino)cyclohexyl]ethynyl]-2-fluoro-phenoxy]propyl]thiazole-4-carboxylic acid]
0.181 | 0.01 | – | CCN(C)CC#Cc1ccc(OCCCc2sc(N3CCCc4c3nnc(Nc3nc5ccccc5s3)c4C)nc2C(=O)O)c(F)c1 [Example 88, 2-[3-(1,3-Benzothiazol-2-ylamino)-4-methyl-6,7-dihydro-5H-pyrido[2,3-c]pyridazin-8-yl]-5-[3-[4-[3-[ethyl(methyl)amino]prop-1-ynyl]-2-fluoro-phenoxy]propyl]thiazole-4-carboxylic acid]
0.277 | 0.0059 | – | Cc1c(Nc2nc3ccccc3s2)nnc2c1CCCN2c1nc(C(=O)O)c(CCCOc2ccc(C#CCN(C)CC[C@H](O)CO)cc2F)s1 [Example 148, 2-[3-(1,3-benzothiazol-2-ylamino)-4-methyl-6,7-dihydro-5H-pyrido[2,3-c]pyridazin-8-yl]-5-[3-[4-[3-[[(3S)-3,4-dihydroxybutyl]-methyl-amino]prop-1-ynyl]-2-fluoro-phenoxy]propyl]thiazole-4-carboxylic acid]
0.268 | 0.0045 | – | CCNC(C)(C)C#Cc1ccc(OCCCc2sc(N3CCCc4c3nnc(Nc3nc5ccccc5s3)c4C)nc2C(=O)O)c(F)c1 [Example 102, 2-{3-[(1,3-benzothiazol-2-yl)amino]-4-methyl-6,7-dihydropyrido[2,3-c]pyridazin-8(5H)-yl}-5-(3-{4-[3-(ethylamino)-3-methylbut-1-yn-1-yl]-2-fluorophenoxy}propyl)-1,3-thiazole-4-carboxylic acid]
9.78 | 0.0033 | – | CNCCCCc1ccc(OCCCc2sc(N3CCCc4c3nnc(Nc3nc5ccccc5s3)c4C)nc2C(=O)O)c(F)c1 [Example 75, 2-{3-[(1,3-Benzothiazol-2-yl)amino]-4-methyl-5H,6H,7H,8H-pyrido[2,3-c]pyridazin-8-yl}-5-(3-{2-fluoro-4-[4-(methylamino)butyl]phenoxy}propyl)-1,3-thiazole-4-carboxylic acid]
0.57 | 0.0028 | – | Cc1c(Nc2nc3ccccc3s2)nnc2c1CCCN2c1nc(C(=O)O)c(CCCOc2ccc(C#CCN3C[C@@H](C)N[C@@H](C)C3)cc2F)s1 [Example 89, 2-[3-(1,3-Benzothiazol-2-ylamino)-4-methyl-6,7-dihydro-5H-pyrido[2,3-c]pyridazin-8-yl]-5-[3-[4-[3-[(3R,5S)-3,5-dimethylpiperazin-1-yl]prop-1-ynyl]-2-fluoro-phenoxy]propyl]thiazole-4-carboxylic acid]
